SMILES strings stand for the structures. Calls of active or inactive are those of the source.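 Rule for the calls: active = phospho-ERK protein band moved at least 30% up or down from the DMSO-only control band; inactive = the rest.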

For assay [1], the target named is Mitogen-activated protein kinase 1 (Homo sapiens) (UniProt P28482). As to the kind of experiment: p-MAPK1 abundance shift in treated cells – cell-based, HCT116 colorectal carcinoma, chemiluminescent western blot, counter-screen for KLF5 inhibitor project, late-stage follow-up (AID 588643). Particulars: HCT116 phospho-ERK1/2 western blot, 24 h; at 10 µM; stronger effect = higher value. On the technique in general: A western blot detects proteins with antibodies after separation by electrophoresis.

For assay [2], the system named is HCT116 phospho-ERK1/2 western blot, 24 h. The assay is described as above. Particulars: measured here: phospho-ERK fold change vs DMSO; at 10 µM; stronger effect = lower value.

By inhibition is commonly meant the relative decrease from the control value, in per cent. For the compound `CN(C(=O)COC(=O)/C=C/c1cccc([N+](=O)[O-])c1)C1CCS(=O)(=O)C1` (configuration not stated), the inhibition in assay [1] is -20% (inactive). For the same compound, the fold change in assay [2] stood at 1.2.

These data come from PubChem BioAssay AID588643 (The Scripps Research Institute Molecular Screening Center, 2011).
